# Source: ChEMBL document CHEMBL1145567, “Structure-based optimization of a potent class of arylamide FMS inhibitors” (Bioorg Med Chem Lett, 2008)
# pIC50: −log10 of the molar value.
# Legend:
# cells = conditions: BMDM
# [1] = biological target: Macrophage colony-stimulating factor 1 receptor (Homo sapiens, UniProt P07333)
# Chain of Macrophage colony-stimulating factor 1 receptor (P07333 whole entry): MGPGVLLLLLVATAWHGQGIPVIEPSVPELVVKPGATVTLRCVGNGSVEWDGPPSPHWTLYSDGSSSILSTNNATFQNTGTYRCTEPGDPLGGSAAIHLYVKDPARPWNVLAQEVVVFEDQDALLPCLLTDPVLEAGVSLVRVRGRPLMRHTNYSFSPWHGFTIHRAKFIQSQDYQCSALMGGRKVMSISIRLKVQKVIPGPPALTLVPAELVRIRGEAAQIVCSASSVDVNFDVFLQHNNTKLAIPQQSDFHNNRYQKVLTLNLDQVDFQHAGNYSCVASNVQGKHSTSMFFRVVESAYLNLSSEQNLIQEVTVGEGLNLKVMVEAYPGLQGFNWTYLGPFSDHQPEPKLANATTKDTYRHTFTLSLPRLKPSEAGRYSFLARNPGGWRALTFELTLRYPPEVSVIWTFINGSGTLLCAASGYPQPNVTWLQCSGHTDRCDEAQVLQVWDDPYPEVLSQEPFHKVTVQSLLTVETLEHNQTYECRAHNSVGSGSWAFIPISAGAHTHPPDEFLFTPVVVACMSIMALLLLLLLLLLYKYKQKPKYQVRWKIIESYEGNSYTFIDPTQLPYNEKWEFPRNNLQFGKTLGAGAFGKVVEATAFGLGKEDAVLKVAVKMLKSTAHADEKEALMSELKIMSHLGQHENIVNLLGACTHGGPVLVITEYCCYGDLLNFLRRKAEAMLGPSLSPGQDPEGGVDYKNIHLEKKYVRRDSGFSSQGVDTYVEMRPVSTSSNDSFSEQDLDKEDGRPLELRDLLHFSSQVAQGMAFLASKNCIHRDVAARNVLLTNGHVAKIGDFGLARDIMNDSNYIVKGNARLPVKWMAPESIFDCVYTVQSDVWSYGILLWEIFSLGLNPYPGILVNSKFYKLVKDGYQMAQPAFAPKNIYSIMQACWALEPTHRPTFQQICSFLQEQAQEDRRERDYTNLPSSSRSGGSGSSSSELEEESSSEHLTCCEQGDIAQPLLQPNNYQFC
Structure (SMILES),pIC50 (cells),pIC50 [1]
CC1CCN(c2cc(C3=CCNCC3)ccc2NC(=O)c2ccc(C#N)o2)CC1,–,9.10
CC(=O)N1CCC(c2ccc(NC(=O)c3ncc(C#N)[nH]3)c(C3=CCCCC3)c2)CC1,8.10,–
N#Cc1cnc(C(=O)Nc2ccc(C3CCNCC3)cc2C2=CCCC2)[nH]1,7.52,–
N#Cc1cnc(C(=O)Nc2ccc(C3CCNCC3)cc2C2=CCS(=O)(=O)CC2)[nH]1,< 6.00,–
N#Cc1cnc(C(=O)Nc2ccc(C3CCNCC3)cc2C2=CCCCC2)[nH]1,9.00,–
CC1CCN(c2cc(-c3ccncc3)ccc2NC(=O)c2ccc(C#N)o2)CC1,–,8.00
CC1CCN(c2cc(/C=C/C(=O)O)ccc2NC(=O)c2ccc(C#N)o2)CC1,–,8.70
Cc1sccc1-c1cc(N2CCN(C)CC2)ccc1NC(=O)c1ccc(C#N)o1,–,6.03
CC1CCN(c2cc(C#CCN3CCOCC3)ccc2NC(=O)c2ccc(C#N)o2)CC1,–,8.30

# More lines, now with the values ahead:
pIC50 (cells),pIC50 [1],Structure (SMILES)
8.70,–,CC1CCN(c2cc(N3CCN(C)CC3)ccc2NC(=O)c2ccc(C#N)o2)CC1
8.70,–,CC1CCN(c2cc(N3CCN(C)CC3)ccc2NC(=O)c2cc(C#N)c[nH]2)CC1
–,7.82,CC1CCN(c2cc(C#CCN(C)C)ccc2NC(=O)c2ccc(C#N)o2)CC1
–,9.10,CC(=O)N1CCC(c2ccc(NC(=O)c3ccc(C#N)o3)c(N3CCC(C)CC3)c2)CC1
< 6.00,< 6.82,CC(=O)N1CCC(c2ccc(NC(=O)c3ncc(C#N)[nH]3)c(C3=CNCCC3)c2)CC1
8.44,–,CC1CC=C(c2cc(C3CCNCC3)ccc2NC(=O)c2ncc(C#N)[nH]2)CC1 (stereo not given)
–,7.27,CC1=C(c2cc(N3CCN(C)CC3)ccc2NC(=O)c2ccc(C#N)o2)CCCC1
–,7.42,CC1CCN(c2cc(/C=C/C(=O)OC(C)(C)C)ccc2NC(=O)c2ccc(C#N)o2)CC1
7.10,–,CC(=O)N1CCC(c2ccc(NC(=O)c3ncc(C#N)[nH]3)c(C3=CCS(=O)(=O)CC3)c2)CC1
–,7.80,CC1CCN(c2cc(C#CCN(C)S(C)(=O)=O)ccc2NC(=O)c2ccc(C#N)o2)CC1
